Results published in patent US9365522B2, “Pyrazole amide derivative” (AMGEN INC., priority 2015, dated 2016).

Target: T1, human RORγ-LBD (Homo sapiens, UniProt P51449)
T1 construct: made in house; host or cells: E. coli (BL-21)
T1 sequence (P51449 262-518): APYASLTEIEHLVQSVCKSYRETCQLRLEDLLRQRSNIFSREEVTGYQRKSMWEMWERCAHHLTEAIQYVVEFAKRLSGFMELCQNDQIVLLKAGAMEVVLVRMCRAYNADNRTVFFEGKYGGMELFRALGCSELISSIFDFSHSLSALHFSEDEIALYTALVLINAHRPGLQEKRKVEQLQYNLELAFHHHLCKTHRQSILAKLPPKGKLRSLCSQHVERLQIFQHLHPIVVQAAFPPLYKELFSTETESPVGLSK
Assay: ROR gamma coactivator peptide recruitment Alphascreen assay (RORγ-LBD binding to GRIP1 coactivator peptide)
Assay type: biochemical
Conditions: 5 nM human RORγ-LBD, 30 nM 7-β-hydroxycholesterol, 50 nM biotinylated GRIP1 coactivator peptide, overnight incubation at room temperature; read-out: result (pIC50, RORγ coactivator peptide recruitment Alphascreen assay) (converted)
How it was run: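 His/Flag-tagged human RORγ-LBD (aa 262-518, E. coli-expressed, 5 nM) with agonist 7-β-hydroxycholesterol (30 nM) and biotinylated GRIP1 LXXLL peptide (50 nM) in HEPES pH 7.4 buffer, 2.5% DMSO. Compound 1-in-2 dilutions; Alphascreen bead signal read after overnight incubation at room temperature; pIC50 calculated.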

Compound | IC50
CC1(C)CC(CN(CC(=O)c2c(F)cccc2Cl)C(=O)c2cnn([C@H]3CC[C@](C)(C(=O)O)CC3)c2C(F)(F)F)C1 [Example 595, trans-4-(4-((2-(2-chloro-6-fluorophenyl)-2-oxoethyl)((3,3-dimethylcyclobutyl)methyl)carbamoyl)-5-(trifluoromethyl)-1H-pyrazol-1-yl)-1-methylcyclohexanecarboxylic acid] | 5.62 nM
C[C@]1(C(=O)O)CC[C@H](n2ncc(C(=O)N(CC(=O)c3c(Cl)cncc3Cl)CC3(F)CCCCC3)c2C(F)(F)F)CC1 [Example 666, trans-4-(4-((2-(3,5-dichloro-4-pyridinyl)-2-oxoethyl)((1-fluorocyclohexyl)methyl)carbamoyl)-5-(trifluoromethyl)-1H-pyrazol-1-yl)-1-methylcyclohexanecarboxylic acid] | 4.57 nM
C[C@@H]1C[C@H](n2ncc(C(=O)N(CC(=O)c3c(Cl)cccc3Cl)CC3CC(C)(C)C3)c2C(F)(F)F)CC[C@@H]1C(=O)O [Example 683, (1S,2R,4R)-4-(4-((2-(2,6-dichlorophenyl)-2-oxoethyl)((3,3-dimethylcyclobutyl)methyl)carbamoyl)-5-(trifluoromethyl)-1H-pyrazol-1-yl)-2-methylcyclohexanecarboxylic acid] | 8.91 nM
CC1(C)CC(N(CC(=O)c2c(Cl)cccc2Cl)C(=O)c2cnn([C@H]3CC[C@](C)(C(=O)O)CC3)c2C(F)(F)F)C1 [Example 599, trans-4-(4-((2-(2,6-dichlorophenyl)-2-oxoethyl)(3,3-dimethylcyclobutyl)carbamoyl)-5-(trifluoromethyl)-1H-pyrazol-1-yl)-1-methylcyclohexanecarboxylic acid] | 13.8 nM
CC1(C)CC(N(CC(=O)c2c(Cl)cccc2Cl)C(=O)c2cnn([C@H]3CC[C@@H](C(=O)O)CC3)c2C(F)(F)F)C1 [Example 600, cis-4-(4-((2-(2,6-dichlorophenyl)-2-oxoethyl)(3,3-dimethylcyclobutyl)carbamoyl)-5-(trifluoromethyl)-1H-pyrazol-1-yl)cyclohexanecarboxylic acid] | 794 nM
CC1(C)CC(CN(CC(=O)c2ccccc2C#N)C(=O)c2cnn([C@H]3CC[C@](C)(C(=O)O)CC3)c2C(F)(F)F)C1 [Example 604, trans-4-(4-((2-(2-cyanophenyl)-2-oxoethyl)((3,3-dimethylcyclobutyl)methyl)carbamoyl)-5-(trifluoromethyl)-1H-pyrazol-1-yl)-1-methylcyclohexanecarboxylic acid] | 6610 nM
CC1(C)[C@@H]2C[C@H](N(CC(=O)c3c(Cl)cccc3Cl)C(=O)c3cnn([C@H]4CC[C@H](C(=O)O)CC4)c3C(F)(F)F)C[C@@H]21 [Example 610, cis-4-(4-((2-(2,6-dichlorophenyl)-2-oxoethyl)((1R,3r,5S)-6,6-dimethylbicyclo[3.1.0]hex-3-yl)carbamoyl)-5-(trifluoromethyl)-1H-pyrazol-1-yl)cyclohexanecarboxylic acid] | 12.3 nM
CC1(CN(CC(=O)c2c(Cl)cncc2Cl)C(=O)c2cnn([C@H]3CC[C@](C)(C(=O)O)CC3)c2C(F)(F)F)CCCCC1 [Example 588, trans-4-(4-((2-(3,5-dichloro-4-pyridinyl)-2-oxoethyl)((1-methylcyclohexyl)methyl)carbamoyl)-5-(trifluoromethyl)-1H-pyrazol-1-yl)-1-methylcyclohexanecarboxylic acid] | 3.31 nM
C[C@]1(C(=O)O)CC[C@H](n2ncc(C(=O)N(CC(=O)c3c(Cl)cccc3Cl)[C@H]3CCC34CCCC4)c2C(F)(F)F)CC1 [Example 626] | 2.82 nM
C[C@@]1(CN(CCc2c(Cl)cncc2Cl)C(=O)c2cnn([C@H]3CC[C@](C)(C(=O)O)CC3)c2C(F)(F)F)CCCO1 [Example 682, trans-4-(4-((2-(3,5-dichloro-4-pyridinyl)ethyl)(((2S)-2-methyltetrahydro-2-furanyl)methyl)carbamoyl)-5-(trifluoromethyl)-1H-pyrazol-1-yl)-1-methylcyclohexanecarboxylic acid] | 50.1 nM
CC1(CN(CCc2c(Cl)cncc2Cl)C(=O)c2cnn([C@H]3CC[C@](C)(C(=O)O)CC3)c2C(F)(F)F)CC1 [Example 564, trans-4-(4-((2-(3,5-dichloro-4-pyridinyl)ethyl)((1-methylcyclopropyl)methyl)carbamoyl)-5-(trifluoromethyl)-1H-pyrazol-1-yl)-1-methylcyclohexanecarboxylic acid] | 4.17 nM

Next, values leading:

IC50 | Compound
2.04 nM | CC1(CN(CC(=O)c2c(Cl)cncc2Cl)C(=O)c2cnn([C@H]3CC[C@](C)(C(=O)O)CC3)c2C(F)(F)F)CCCC1 [Example 711, trans-4-(4-((2-(3,5-dichloro-4-pyridinyl)-2-oxoethyl)((1-methylcyclopentyl)methyl)carbamoyl)-5-(trifluoromethyl)-1H-pyrazol-1-yl)-1-methylcyclohexanecarboxylic acid]
7.24 nM | CC1(C)CC[C@H](CN(CC(=O)c2c(Cl)cccc2Cl)C(=O)c2cnn([C@H]3CC[C@](C)(C(=O)O)CC3)c2C(F)(F)F)O1 [Example 839, trans-4-(4-((2-(2,6-dichlorophenyl)-2-oxoethyl)(((2S)-5,5-dimethyltetrahydro-2-furanyl)methyl)carbamoyl)-5-(trifluoromethyl)-1H-pyrazol-1-yl)-1-methylcyclohexanecarboxylic acid]
4.47 nM | Cc1cc(Cl)c(C(=O)CN(C[C@@]2(C)CCCO2)C(=O)c2cnn([C@H]3CC[C@](C)(C(=O)O)CC3)c2C(F)(F)F)c(Cl)c1 [Example 725, trans-4-(4-((2-(2,6-dichloro-4-methylphenyl)-2-oxoethyl)(((2S)-2-methyltetrahydro-2-furanyl)methyl)carbamoyl)-5-(trifluoromethyl)-1H-pyrazol-1-yl)-1-methylcyclohexanecarboxylic acid]
6.31 nM | CC(C)(C)CN(CC(=O)c1c(Cl)cncc1Cl)C(=O)c1cnn([C@H]2C[C@]3(C[C@H](C(=O)O)C3)C2)c1C(F)(F)F (some centres unmarked) [Example 771, (4r)-6-(4-((2-(3,5-dichloro-4-pyridinyl)-2-oxoethyl)(2,2-dimethylpropyl)carbamoyl)-5-(trifluoromethyl)-1H-pyrazol-1-yl)spiro[3.3]heptane-2-carboxylic acid]
2.63 nM | CCC1(CN(CC(=O)c2c(Cl)cncc2Cl)C(=O)c2cnn([C@H]3CC[C@](C)(C(=O)O)CC3)c2C(F)(F)F)CCC1 [Example 742, trans-4-(4-((2-(3,5-dichloro-4-pyridinyl)-2-oxoethyl)((1-ethylcyclobutyl)methyl)carbamoyl)-5-(trifluoromethyl)-1H-pyrazol-1-yl)-1-methylcyclohexanecarboxylic acid]
11.7 nM | C[C@@]1(CN(CC(=O)c2c(Cl)cccc2Cl)C(=O)c2cnn([C@H]3CC[C@](C)(C(=O)O)CC3)c2C(F)(F)F)CCCO1 [Example 727, trans-4-(4-((2-(2,6-dichlorophenyl)-2-oxoethyl)(((2S)-2-methyltetrahydro-2-furanyl)methyl)carbamoyl)-5-(trifluoromethyl)-1H-pyrazol-1-yl)-1-methylcyclohexanecarboxylic acid]
6.46 nM | CC1(CN(CC(=O)c2c(Cl)cncc2Cl)C(=O)c2cnn([C@H]3CC[C@](C)(C(=O)O)CC3)c2C(F)(F)F)CC(F)(F)C1 [Example 863, trans-4-(4-((2-(3,5-dichloro-4-pyridinyl)-2-oxoethyl)((3,3-difluoro-1-methylcyclobutyl)methyl)carbamoyl)-5-(trifluoromethyl)-1H-pyrazol-1-yl)-1-methylcyclohexanecarboxylic acid]
891 nM | C[C@@H]1C[C@@H](n2ncc(C(=O)N(CC(=O)c3c(Cl)cncc3Cl)CC3CCC4(CC3)CC4)c2C(F)(F)F)CC[C@@H]1C(=O)O [Example 852, (1S,2R,4S)-4-(4-((2-(3,5-dichloro-4-pyridinyl)-2-oxoethyl)(spiro[2.5]oct-6-ylmethyl)carbamoyl)-5-(trifluoromethyl)-1H-pyrazol-1-yl)-2-methylcyclohexanecarboxylic acid]
6.76 nM | C[C@]1(C(=O)O)CC[C@H](n2ncc(C(=O)N(CC(=O)c3c(Cl)cc(F)cc3Cl)CC3(F)CC3)c2C(F)(F)F)CC1 [Example 690, trans-4-(4-((2-(2,6-dichloro-4-fluorophenyl)-2-oxoethyl)((1-fluorocyclopropyl)methyl)carbamoyl)-5-(trifluoromethyl)-1H-pyrazol-1-yl)-1-methylcyclohexanecarboxylic acid]
21.9 nM | CC(C)(F)CN(CC(=O)c1c(Cl)cncc1Cl)C(=O)c1cnn([C@H]2C[C@@]3(C[C@H](C(=O)O)C3)C2)c1C(F)(F)F (some centres unmarked) [Example 847, (4s)-6-(4-((2-(3,5-dichloro-4-pyridinyl)-2-oxoethyl)(2-fluoro-2-methylpropyl)carbamoyl)-5-(trifluoromethyl)-1H-pyrazol-1-yl)spiro[3.3]heptane-2-carboxylic acid]
32.4 nM | C[C@@H]1CC[C@@H](CN(CC(=O)c2c(Cl)cncc2Cl)C(=O)c2cnn([C@H]3CC[C@](C)(C(=O)O)CC3)c2C(F)(F)F)O1 [Example 706, trans-4-(4-((2-(3,5-dichloro-4-pyridinyl)-2-oxoethyl)(((2S,5R)-5-methyltetrahydro-2-furanyl)methyl)carbamoyl)-5-(trifluoromethyl)-1H-pyrazol-1-yl)-1-methylcyclohexanecarboxylic acid]
6.03 nM | C[C@H]1C[C@@H](n2ncc(C(=O)N(CC(=O)c3c(Cl)cncc3Cl)CC(C)(C)C)c2C(F)(F)F)CC[C@@H]1C(=O)O (single isomer, unassigned) [Example 813]
